Data: US4200650A, “2-Amino-cyclopent-1-ene-1-thiocarboxylic acid-disulfides to treat noradrenergic malfunctions” (Richter Gedeon Vegyeszeti Gyar Rt., priority 1976, dated 1980)

How the values were obtained:
dopamine-β-hydroxylase [1] = settings: literature, cited from earlier work
dopamine-β-hydroxylase [2] = assay: Determination of the noradrenaline content of heart; format: in vivo, male Wistar rats; settings: i.p.
Description: (§1) The dopamine-β-hydroxylase inhibiting effects of the new compounds according to the invention were examined by the following tests:
(§2) The tests were performed on male Wistar rats weighing 150 to 200 g. The dopamine-β-hydroxylase inhibiting effects of the compounds were evaluated by determining the change of noradrenaline, dopamine and adrenaline levels of the cerebrum, heart, spleen and adrenal gland. The serotonine and 5-hydroxy-indolylacetic acid levels of the cerebrum were also determined. The measurements were performed as follows:
(§3) The animals were decapitated, the cerebrum, heart, spleen and adrenal gland were removed quickly, and the organs were frozen by placing them onto a metal sheet cooled with dry ice. The frozen organs were stored for maximum one night at -20° C.
(§4) Determination of the noradrenaline content of heart and spleen
(§5) The organs were weighed in frozen state and then homogenized in 5.0 ml of 0.4 n perchloric acid containing 0.05% of EDTA-Naa and 0.1% of Na2 S2 O5. The homogenized mixtures were centrifuged as described above for the treatment of adrenal gland, the supernatants were decanted, and the pH was adjusted to 8.0±0.1 with a 0.1 molar tris buffer containing 20 g/l of NaOH and 25 g/l of EDTA-Na2. 100 mg of prepared Al2 O3 (Anton et al.: J. Pharm. Ther. 138, 360/1962/) were added to the samples, and the mixtures were shaken mechanically for 20 minutes. Thereafter Al2 O3 was washed with 2×10 ml of distilled water, and noradrenaline was eluted with 1.0 ml of 0.05 n perchloric acid. 0.5 ml samples of the eluate were applied for the determination of noradrenaline. Noradrenaline was determined according to the method of Shellenberger et al. (Anal. Biochem. 39, 356/1971/), with the following modifications of the basic procedure: 0.5 ml of 0.1 molar Na-K-phosphate buffer, containing 9 g/l of EDTA-Na2, were added to 0.5 ml of the eluate, and the catecholamines (noradrenaline in the examination of heart and spleen and noradrenaline and dopamine in the examination of the cerebrum) were oxidized with 0.1 ml of a 0.1 n iodine solution in 5% potassium iodide. After exactly 2 minutes oxidation was stopped by adding 0.25 ml of a 2.5% sodium sulfite solution in 4.4 n aqueous sodium hydroxide to the mixture. 2 minutes after the introduction of the alkaline sulfite solution 0.2 ml of concentrated acetic acid were added to the samples, upon which the pH decreased to 4.4 to 4.5 Thereafter the samples were placed for 5 minutes into a drying oven heated to 100° C., and then the samples were cooled with ice water. The fluorescency of noradrenaline was measured with an OPTON spectrophotometer at wavelengths of 380 nm (excitation) and 490 nm (emission).
(§6) In the tests disulfiram, 2,2-dipyridyl, bis(1-methyl-4-homopiperazinyl-thriocaronyl)-disulfide, sodium diethyldithiocarbamate and N-phenyl-N'-(2-thiazolyl)-thiourea were applied as reference substances. The values indicated in Table 1 are the percentages in relation to the amine levels of the controls measured in the same tests (± standard error). The statistical calculations were performed on a TPA/i type computer, using Student's t test.

[3] = system: serotonine and 5-hydroxy-indolylacetic acid levels of the cerebrum; assay: Determination of serotonine and 5-hydroxy-indolylacetic acid levels of brain; format: in vivo, male Wistar rats
Description: as §2, §3
(§7) Determination of the noradrenaline, dopamine, serotonine and 5-hydroxy-indolylacetic acid contents of brain
(§8) In a further test series the serotonine and 5-hydroxy-indolylacetic acid contents were also determined, beside the determination of the noradrenaline and dopamine content, from the same sample. In this instance the brains were homogenized in 10 ml of 75% ethanol, 0.2 ml of EDTA-Na2 and 5% of ascorbic acid were added to the homogenized mixtures, and the homogenized mixtures were maintained at -20° C. overnight. The mixtures were centrifuged as described above, and 5.0 ml samples of the supernatant were removed. The samples were diluted with equal volumes of distilled water, and poured onto ion exchange columns of 0.5×1.5 cm dimensions, filled with buffered Amberlite CG-30 (200 to 400 mesh). The columns were washed with 5 ml of distilled water followed by 1.0 ml of 0.2 n hydrochloric acid, and the first effluent and the aqueous wash were collected for the determination of 5-hydroxy-indolylacetic acid. Elution was continued with further 1.2 ml of 0.2 n hydrochloric acid in order to remove noradrenaline, dopamine and serotonine. Samples of 0.3 ml were used for the determinations.
(§9) Noradrenaline and dopamine were determined by the method of Shellenberger, modified as described above, whereas serotonine was determined by the method of Curzon et al. (Brit. J. Pharmacol. 39, 653/1970/). The basic method was modified as follows: A 0.5% solution of ortho-phthal(di)aldehyde in absolute ethanol was diluted with 10 n hydrochloric acid to 50-fold of its original volume, and 0.6 ml of the resulting 0.01% ortho-phthal(di)aldehyde solution were added immediately to 0.5 ml of the serotonine-containing sample. The sample was placed into a hot water bath for 10 minutes, thereafter cooled with tap water, and the fluorescency was recorded at wavelengths of 360 nm (excitation) and 490 nm (emission).
5-Hydroxy-indolylacetic acid was determined from the mixture of the first effluent and the aqueous wash. 10 ml of distilled water and 0.2 ml of concentrated hydrochloric acid were added to the mixture, and the sample was poured onto a 0.8×4.0 cm column filled with Sephadex G-10. The column was washed with 15 ml of 0.1 n hydrochloric acid followed by 1.8 to 2.0 ml of 0.02 n aqueous ammonia, and then 5-hydroxyindolylacetic acid was eluted with further 2.0 ml of aqueous ammonia. 0.5 ml samples were used in the measurements, and the determination was performed according to the method of Korf et al. (Biochem. Pharmacol. 20, 659/1971/).
as §6

dopamine-β-hydroxylase [4] = assay: Determination of the noradrenaline content of spleen; format: in vivo, male Wistar rats; settings: i.p.
Description: as §1, §2, §3, §4, §5, §6

dopamine-β-hydroxylase [5] = assay: Determination of the adrenaline content of adrenal gland; format: in vivo, male Wistar rats; settings: i.p.
Description: as §1, §2, §3
Determination of the adrenaline content of adrenal gland
The adrenal glands were freed from fat and homogenized in 3.0 ml of ice-cold 0.4 n perchloric acid. The homogenized mixtures were centrifuged for 10 minutes at 0° C. with a speed of 3200 r.p.m. using a Janetzky K-70 type centrifuge. 0.05 ml samples were taken from the supernatant, and the adrenaline level was determined directly by the method of Laverty et al. (Anal. Biochem. 22, 269/1968/).
as §6

dopamine-β-hydroxylase [6] = assay: Determination of noradrenaline and dopamine levels of brain (dopamine-β-hydroxylase inhibiting effect); format: in vivo, male Wistar rats; settings: i.p.
Description: as §1, §2, §3, §7
The brains were homogenized in 10 parts by volume of 0.4 n perchloric acid. The homogenized mixture was stored at -20° C. overnight, thereafter it was thawed and centrifuged as described above. A sample of the homogenized mixture corresponding to 0.5 g of brain was removed, the pH of the sample was adjusted to 8.0±0.1 with 0.1 molar tris-buffer of the above composition, and the sample was processed as described above for the determination of the noradrenaline content of heart and spleen, with the difference that 1.5 ml of 0.05 n perchloric acid were applied as eluting agent. 0.5 ml of the eluate were applied to determine the noradrenaline and dopamine contents. The measurement was performed as described above, with the difference that samples of 0.5 ml were applied for the recording of the fluorescency of noradrenaline. The residua was placed for 50 minutes into a drying oven heated to 100° C., thereafter the sample was cooled with ice water, and the fluorescency of dopamine was recorded at wavelengths of 325 nm (excitation) and 380 nm (emission).
as §8, §9
In the tests disulfiram, 2,2-dipyridyl, bis(1-methyl-4-homopiperazinyl-thriocaronyl)-disulfide, sodium diethyldithiocarbamate and N-phenyl-N'-(2-thiazolyl)-thiourea were applied as reference substances. […]

[7] = 100 mg/kg, 4 hours, ± standard error
[8] = 200 mg/kg, 4 hours, ± standard error
[9] = 200 mg/kg, 8 hours, ± standard error
[10] = i.p., 200 mg/kg, 4 hours, ± standard error

c1ccc(-c2ccccn2)nc1 [2,2-D, 2,2-dipyridyl, reference compound]
dopamine-β-hydroxylase inhibition under in vitro conditions, in words (dopamine-β-hydroxylase [1]; in vitro): effective under in vitro conditions | Heart NA (noradrenaline) level, percentages in relation to the controls (dopamine-β-hydroxylase [2]; 37.5 mg/kg, 4 hours): 104% | Heart NA (noradrenaline) level, percentages in relation to the controls (dopamine-β-hydroxylase [2]; 75 mg/kg, 4 hours): 58% | Brain SE (serotonine) level, percentages in relation to the controls ([3]; i.p., 75 mg/kg, 4 hours): 100% | Spleen NA (noradrenaline) level, percentages in relation to the controls (dopamine-β-hydroxylase [4]; 37.5 mg/kg, 4 hours): 100% | Adrenal gland AD (adrenaline) level, percentages in relation to the controls (dopamine-β-hydroxylase [5]; 37.5 mg/kg, 4 hours): 80% | Adrenal gland AD (adrenaline) level, percentages in relation to the controls (dopamine-β-hydroxylase [5]; 75 mg/kg, 4 hours): 63% | Brain DA (dopamine) level, percentages in relation to the controls (dopamine-β-hydroxylase [6]; 37.5 mg/kg, 4 hours): 116% | Brain NA (noradrenaline) level, percentages in relation to the controls (dopamine-β-hydroxylase [6]; 37.5 mg/kg, 4 hours): 79.5% | Brain DA (dopamine) level, percentages in relation to the controls (dopamine-β-hydroxylase [6]; 75 mg/kg, 4 hours): 95% | Brain NA (noradrenaline) level, percentages in relation to the controls (dopamine-β-hydroxylase [6]; 75 mg/kg, 4 hours): 41.2%

CCCCNC1=C(C(=S)SSC(=S)C2=C(NCCCC)CCC2)CCC1 [Compound M-2, 2-(N-butyl)-amino-cyclopent-1-ene-thiocarboxylic aciddisulfide]
Heart NA (noradrenaline) level, percentages in relation to the controls (dopamine-β-hydroxylase [2]; [7]): 91.5±5.2% | Heart NA (noradrenaline) level, percentages in relation to the controls (dopamine-β-hydroxylase [2]; [8]): 108.5±9.4% | Heart NA (noradrenaline) level, percentages in relation to the controls (dopamine-β-hydroxylase [2]; [9]): 91.7±4.6% | response vs control in vivo at 200 mg/kg ([3]; Rattus norvegicus, ip, 200 mg/kg, 8 hours, ± standard error, read-out: Brain 5-HIAA (5-hydroxy-indolylacetic acid) level, percentages in relation to the controls): 126 ± 7.1% | Spleen NA (noradrenaline) level, percentages in relation to the controls (dopamine-β-hydroxylase [4]; [8]): 114.5±28.2% | Spleen NA (noradrenaline) level, percentages in relation to the controls (dopamine-β-hydroxylase [4]; [9]): 96.4±23.1% | Adrenal gland AD (adrenaline) level, percentages in relation to the controls (dopamine-β-hydroxylase [5]; [7]): 81.0±8.5% | Adrenal gland AD (adrenaline) level, percentages in relation to the controls (dopamine-β-hydroxylase [5]; [8]): 91.7±4.3% | Adrenal gland AD (adrenaline) level, percentages in relation to the controls (dopamine-β-hydroxylase [5]; [9]): 87.7±4.2% | Brain DA (dopamine) level, percentages in relation to the controls (dopamine-β-hydroxylase [6]; [7]): 118.3±5.7% | Brain NA (noradrenaline) level, percentages in relation to the controls (dopamine-β-hydroxylase [6]; [7]): 80.1±4.3% | Brain DA (dopamine) level, percentages in relation to the controls (dopamine-β-hydroxylase [6]; [8]): 94.2±7.5% | Brain NA (noradrenaline) level, percentages in relation to the controls (dopamine-β-hydroxylase [6]; [8]): 70.9±5.2% | Brain DA (dopamine) level, percentages in relation to the controls (dopamine-β-hydroxylase [6]; [9]): 91.0±12.7% | Brain NA (noradrenaline) level, percentages in relation to the controls (dopamine-β-hydroxylase [6]; [9]): 81.6±7.3%

S=C(Nc1ccccc1)Nc1nccs1 [Compound U-14624, N-phenyl-N'-(2-thiazolyl)-thiourea, reference compound]
Heart NA (noradrenaline) level, percentages in relation to the controls (dopamine-β-hydroxylase [2]; [8]): 106% | Brain 5-HIAA (5-hydroxy-indolylacetic acid) level, percentages in relation to the controls [3, 10]: 175% | Brain SE (serotonine) level, percentages in relation to the controls [3, 10]: 137% | Spleen NA (noradrenaline) level, percentages in relation to the controls (dopamine-β-hydroxylase [4]; [8]): 111% | Adrenal gland AD (adrenaline) level, percentages in relation to the controls (dopamine-β-hydroxylase [5]; [8]): 72% | Brain DA (dopamine) level, percentages in relation to the controls (dopamine-β-hydroxylase [6]; [8]): 121% | Brain NA (noradrenaline) level, percentages in relation to the controls (dopamine-β-hydroxylase [6]; [8]): 31.6%

CCN(CC)C(=S)SSC(=S)N(CC)CC [DS, bis(diethylthiocarbamoyl)-disulfide, reference compound]
dopamine-β-hydroxylase inhibiting effects, in words (dopamine-β-hydroxylase [1]): strong dopamine-β-hydroxylase inhibiting effects | Heart NA (noradrenaline) level, percentages in relation to the controls (dopamine-β-hydroxylase [2]; [8]): 98% | Heart NA (noradrenaline) level, percentages in relation to the controls (dopamine-β-hydroxylase [2]; 400 mg/kg, 4 hours): 102% | Brain SE (serotonine) level, percentages in relation to the controls [3, 10]: 122% | Brain SE (serotonine) level, percentages in relation to the controls ([3]; i.p., 400 mg/kg, 4 hours): 117% | Adrenal gland AD (adrenaline) level, percentages in relation to the controls (dopamine-β-hydroxylase [5]; [8]): 52% | Adrenal gland AD (adrenaline) level, percentages in relation to the controls (dopamine-β-hydroxylase [5]; 400 mg/kg, 4 hours): 66% | Brain DA (dopamine) level, percentages in relation to the controls (dopamine-β-hydroxylase [6]; [8]): 111% | Brain NA (noradrenaline) level, percentages in relation to the controls (dopamine-β-hydroxylase [6]; [8]): 22.5% | Brain DA (dopamine) level, percentages in relation to the controls (dopamine-β-hydroxylase [6]; 400 mg/kg, 4 hours): 112% | Brain NA (noradrenaline) level, percentages in relation to the controls (dopamine-β-hydroxylase [6]; 400 mg/kg, 4 hours): 24.1%
